Assay results from patent publication US12133916B2, “Process for producing an andrographolide carrier system” (priority 2021, dated 2024).

Assay: Water solubility / water-dispersability comparison (FIG. 1)
Format: physicochemical
Settings: dispersed in water, visual

C=C1CC[C@@H]2[C@](C)(CO)[C@H](O)CC[C@@]2(C)[C@@H]1C/C=C1/C(=O)OC[C@H]1O [known 99% andrographolide, Andrographolide]
water-dispersability (FIG. 1): insoluble in water
